Data as given in patent US12060349B2, “Glucosylceramide synthase inhibitors” (Genzyme Corporation, priority 2012, dated 2024).
pIC50: −log10 of the molar value. Read-outs that look alike come from different tables or passages of the source.

Columns and labels:
[1] = biological target: T1, glucosylceramide synthase (Homo sapiens, UniProt Q16739); assay: microsomal assay measuring conversion of ceramide to glucosylceramide by HPLC (GCS IC50); type: biochemical; details: concentration causing 50% inhibition of glucosylceramide synthase activity
T1 construct: Microsomes were isolated from A375 human melanoma cells; endogenous in cells; host or cells: A375 human melanoma cells (microsomal fraction, 100,000 g pellet)
T1 sequence (Q16739 1-394): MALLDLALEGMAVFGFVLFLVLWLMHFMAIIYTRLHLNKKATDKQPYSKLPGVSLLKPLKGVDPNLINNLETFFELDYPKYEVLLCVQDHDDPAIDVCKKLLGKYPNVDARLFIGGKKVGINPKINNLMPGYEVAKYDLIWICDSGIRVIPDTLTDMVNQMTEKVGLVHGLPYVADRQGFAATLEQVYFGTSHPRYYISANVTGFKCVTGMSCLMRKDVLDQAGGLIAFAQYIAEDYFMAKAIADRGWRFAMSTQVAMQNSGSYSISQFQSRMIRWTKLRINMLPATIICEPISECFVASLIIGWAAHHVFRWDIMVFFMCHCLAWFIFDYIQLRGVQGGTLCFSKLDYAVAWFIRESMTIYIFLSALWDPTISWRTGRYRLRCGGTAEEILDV
Protocol: Inhibition of glucosylceramide synthase activity for certain compounds of the invention were measured with 1) a microsomal assay that directly measures the conversion of ceramide to glucosylceramide by HPLC and 2) second, cell based, phenotypic assay that monitors cell surface expression of the downstream lipid GM3 by antibody mediated immunofluorescence. The cell based assay was performed in two different cell types, B16 and C32. Cell viability was also assessed in the second, cell-based assay.
The “Compound Number” in the table corresponds to the compound disclosed in the Example of the same number. The results of the microsomal assay are expressed as “GCS IC50”, which represents the concentration of the compound causing 50% inhibition of glucosylceramide synthase activity. The results of the cell based assays (performed in two different cell systems, i.e. B16 mouse melanoma or C32 human melanoma cells) are expressed as “GM3 B16 IC50” or “GM3 C32 IC50” for the B16 assay and the C32 assay, respectively. These values represent the concentration of the compound causing 50% inhibition of GM3 expression on the cell surface. The results of the viability assays are expressed as “Viability, B16 IC50” or “Viability, C32 IC50”, respectively. These values represent the concentration of the compound causing 50% cell death. Values greater than 10 represent a lack of cell death.

[2] = tested on: GM3 expression on the cell surface, B16 mouse melanoma cells; assay: cell based phenotypic assay, cell surface GM3 by antibody mediated immunofluorescence, B16 (GM3 B16 IC50); details: 50% inhibition of GM3 expression on the cell surface
Protocol: (§1) The cell based assay was performed in two different cell types, B16 and C32. Cell viability was also assessed in the second, cell-based assay.
(§2) The “Compound Number” in the table corresponds to the compound disclosed in the Example of the same number. […] The results of the cell based assays (performed in two different cell systems, i.e. B16 mouse melanoma or C32 human melanoma cells) are expressed as “GM3 B16 IC50” or “GM3 C32 IC50” for the B16 assay and the C32 assay, respectively. […] The results of the viability assays are expressed as “Viability, B16 IC50” or “Viability, C32 IC50”, respectively. These values represent the concentration of the compound causing 50% cell death. Values greater than 10 represent a lack of cell death.

[3] = tested on: GM3 expression on the cell surface, C32 human melanoma cells; assay: cell based phenotypic assay, cell surface GM3 by antibody mediated immunofluorescence, C32 (GM3 C32 IC50); details: 50% inhibition of GM3 expression on the cell surface
Protocol: as §1, §2

[4] = tested on: B16 mouse melanoma cells; assay: cell viability in the B16 cell-based assay (Viability, B16 IC50)
Protocol: as §1, §2

[5] = tested on: C32 human melanoma cells; assay: cell viability in the C32 cell-based assay (Viability, C32 IC50)
Protocol: as §1, §2

[6] = B16 mouse melanoma cells, read-out: GM3 B16 IC50
[7] = C32 human melanoma cells, read-out: GM3 C32 IC50
[8] = B16 cells; concentration causing 50% cell death; values greater than 10 represent a lack of cell death; read-out: Viability, B16 IC50
[9] = C32 cells; concentration causing 50% cell death; values greater than 10 represent a lack of cell death; read-out: Viability, C32 IC50
[10] = Mus musculus, B16, B16 cells; concentration causing 50% cell death; values greater than 10 represent a lack of cell death; read-out: Viability, B16 IC50
[11] = Homo sapiens, C32, C32 cells; concentration causing 50% cell death; values greater than 10 represent a lack of cell death; read-out: Viability, C32 IC50
[12] = Mus musculus, B16 mouse melanoma cells, read-out: GM3 B16 IC50
[13] = Homo sapiens, C32 human melanoma cells, read-out: GM3 C32 IC50
[14] = Mus musculus, read-out: GM3 B16 IC50, B16 mouse melanoma cells
[15] = Homo sapiens, read-out: GM3 C32 IC50, C32 human melanoma cells
[16] = read-out: Viability, B16 IC50; B16 cells; concentration causing 50% cell death; values greater than 10 represent a lack of cell death
[17] = read-out: Viability, C32 IC50; C32 cells; concentration causing 50% cell death; values greater than 10 represent a lack of cell death

SMILES	pIC50 [1]	pIC50 [2, 6]	pIC50 [3, 7]	pIC50 [4, 10]	pIC50 [5, 11]	pIC50 [2, 12]	pIC50 [3, 13]	also measured
C[C@H]1CN(C(=O)NC2(C)CCN3CCC2CC3)CCN1c1nccc(-c2ccccc2)n1 (single isomer, unassigned) [Example 140]	7.33	5.04	6.24					pIC50 [4, 8]: 5.19; pIC50 [5, 9]: 5.50
CCC1(NC(=O)NC2(c3ccc(-c4ccc(COCCOC)cc4)cc3)CC2)CN2CCC1CC2 (single isomer, unassigned) [Example 208, 1-(3-Ethylquinuclidin-3-yl)-3-(1-(4′-((2-methoxyethoxy)methyl)-[1,1′-biphenyl]-4-yl)cyclopropyl)urea]	5.57	6.01	7.13	≤ 5.00				pIC50 [5, 9]: ≤ 5.00
CCC1(NC(=O)NC2(c3ccc(-c4ccc(COCCOC)cc4)cc3)CC2)CN2CCC1CC2 (single isomer, unassigned) [Example 209, 1-(3-Ethylquinuclidin-3-yl)-3-(1-(4′-((2-methoxyethoxy)methyl)-[1,1′-biphenyl]-4-yl)cyclopropyl)urea]	7.76	7.41	8.98					pIC50 [4, 8]: ≤ 5.00; pIC50 [5, 9]: 5.75
COCCOc1ccc(-c2ccc(C(C)(C)NC(=O)OC3CCN4CCC3CC4)nc2)cc1 (single isomer, unassigned) [Example 348, 1-Azabicyclo[3.2.2]nonan-4-yl 2-(5-(4-(2-methoxyethoxy)phenyl)pyridin-2-yl)propan-2-ylcarbamate]	7.56	7.06	8.45	≤ 5.00	6.00			
COCCOc1ccc(-c2ccc(C(C)(C)NC(=O)OC3CCN4CCC3CC4)nc2)cc1 (single isomer, unassigned) [Example 349, 1-Azabicyclo[3.2.2]nonan-4-yl 2-(5-(4-(2-methoxyethoxy)phenyl)pyridin-2-yl)propan-2-ylcarbamate]	6.60	6.63	7.84					pIC50 [4, 8]: ≤ 5.00; pIC50 [5, 9]: 6.00
CC1(NC(=O)N2CCN(c3ccc(-c4ccccc4)cc3)CC2)CN2CCC1CC2 (centres unmarked) [Example 1, 4-([1,1′-Biphenyl]-4-yl)-N-(3-methylquinuclidin-3-yl)piperazine-1-carboxamide]	6.14			5.15	≤ 5.00	5.90	6.96	
O=C(NC1CN2CCC1CC2)N1CCN(c2ccc(-c3ccccc3)cc2)CC1 (centres unmarked) [Example 2, 4-([1,1′-Biphenyl]-4-yl)-N-(quinuclidin-3-yl)piperazine-1-carboxamide]	5.16			5.28	5.12	5.80	6.18	
O=C(NC1CCN2CCC1CC2)N1CCN(c2ccc(-c3ccccc3)cc2)CC1 (centres unmarked) [Example 3, 4-([1,1′-Biphenyl]-4-yl)-N-(1-azabicyclo[3.2.2]nonan-4-yl)piperazine-1-carboxamide]	4.96			5.38	5.60	5.16	6.00	
CC1(NC(=O)N2CCN(c3ccc(-c4ccccc4)cc3)CC2)CCN2CCC1CC2 (centres unmarked) [Example 4, 4-([1,1′-Biphenyl]-4-yl)-N-(4-methyl-1-azabicyclo[3.2.2]nonan-4-yl)piperazine-1-carboxamide]	6.00			5.21	5.20	5.86	7.20	
O=C(N1CCN(c2ccc(-c3ccccc3)cc2)CC1)N1CCN2CCC1CC2 [Example 5, (4-([1,1′-Biphenyl]-4-yl)piperazin-1-yl)(1,4-diazabicyclo[3.2.2]nonan-4-yl)methanone]	4.52			5.70	5.70	5.70	5.70	
O=C(OC1CN2CCC1CC2)N1CCN(c2ccc(-c3ccccc3)cc2)CC1 (centres unmarked) [Example 6, Quinuclidin-3-yl 4-([1,1′-biphenyl]-4-yl)piperazine-1-carboxylate]	5.25							pIC50 [2, 14]: 5.45; pIC50 [3, 15]: 6.00; pIC50 [4, 16]: 5.28; pIC50 [5, 17]: 5.39
O=C(NC1CN2CCC1CC2)N1CCN(c2ccccc2)CC1 (centres unmarked) [Example 7, 4-Phenyl-N-(quinuclidin-3-yl)piperazine-1-carboxamide]	4.91			≤ 5.00	≤ 5.00	< 5.00	5.15	
O=C(NC1CCN2CCC1CC2)N1CCN(c2ccccc2)CC1 (centres unmarked) [Example 8, N-(1-Azabicyclo[3.2.2]nonan-4-yl)-4-phenylpiperazine-1-carboxamide]	5.48	< 5.00	6.29					pIC50 ([4]; Mus musculus; B16 cells; concentration causing 50% cell death; values greater than 10 represent a lack of cell death; read-out: Viability, B16 IC50): ≤ 5.00; pIC50 ([5]; Homo sapiens; C32 cells; concentration causing 50% cell death; values greater than 10 represent a lack of cell death; read-out: Viability, C32 IC50): ≤ 5.00
CC1(NC(=O)N2CCN(c3ccccc3)CC2)CN2CCC1CC2 (centres unmarked) [Example 9, N-(3-Methylquinuclidin-3-yl)-4-phenylpiperazine-1-carboxamide]	4.91			≤ 5.00	≤ 5.00	< 5.00	5.12	
CC1(NC(=O)N2CCN(c3ccccc3)CC2)CCN2CCC1CC2 (centres unmarked) [Example 10, N-(4-Methyl-1-azabicyclo[3.2.2]nonan-4-yl)-4-phenylpiperazine-1-carboxamide]	4.83			≤ 5.00	≤ 5.00	< 5.00	5.37	
O=C(N1CCN(c2ccccc2)CC1)N1CCN2CCC1CC2 [Example 11, 1,4-Diazabicyclo[3.2.2]nonan-4-yl(4-phenylpiperazin-1-yl)methanone]	4.68			≤ 5.00	≤ 5.00	< 5.00	< 5.00	
O=C(OC1CN2CCC1CC2)N1CCN(c2ccccc2)CC1 (centres unmarked) [Example 12, Quinuclidin-3-yl 4-phenylpiperazine-1-carboxylate]	4.91							pIC50 [2, 14]: < 5.00; pIC50 [3, 15]: < 5.00; pIC50 [4, 16]: ≤ 5.00; pIC50 [5, 17]: ≤ 5.00
O=C(NC1CN2CCC1CC2)N1CCN(c2cccc(-c3ccccc3)c2)CC1 (centres unmarked) [Example 13, 4-([1,1′-Biphenyl]-3-yl)-N-(quinuclidin-3-yl)piperazine-1-carboxamide]	5.61			5.07	≤ 5.00	5.17	6.16	
O=C(NC1CCN2CCC1CC2)N1CCN(c2cccc(-c3ccccc3)c2)CC1 (centres unmarked) [Example 14, 4-([1,1′-Biphenyl]-3-yl)-N-(1-azabicyclo[3.2.2]nonan-4-yl)piperazine-1-carboxamide]	6.15			5.17	≤ 5.00	5.47	6.97	
